The values that follow are results of earlier work, collected in patent US9040535B2, “Crystalline molecular comlpexes of tadalafil” (THAR PHARMACEUTICALS, INC., priority 2009, dated 2015).

The structures appear in SMILES notation.

For series [1] the following is noted: n-octanol/buffer pH 7.4.

As to `CN1CC(=O)N2[C@H](c3ccc4c(c3)OCO4)c3[nH]c4ccccc4c3C[C@@H]2C1=O` [Tadalafil, (6R-trans)-6-(1,3-benzodioxol-5-yl)-2,3,6,7,12,12a-hexahydro-2methyl-pyrazino[1′,2′:1,6]pyrido[3,4-b]indole-1,4-dione], the “apparent partition coefficient (log P)app” value in series [1] is recorded as 1.7. Also, where the note is “chloroform”, the solubility in chloroform entry is “sparingly soluble”. Also, the solubility in dioxane result (dioxane) is “soluble”. The solubility in tetrahydrofuran entry (tetrahydrofuran) is “sparingly soluble”. Besides, the solubility in water entry (water) is recorded as “practically insoluble”.
